Patent publication US6291470A, “Indole derivatives process for producing the same and medicinal uses of the same” (Toray Industries, Inc., priority 1992, dated 2001)
Where two headings read alike, the source gives them in different places.

Experiments:
δ-opioid receptor [1] = target: T1, δ-opioid receptor (Mus musculus, UniProt P32300); assay: Change in δ-antagonist activity against DPDPE with time in mouse vas deferens (MVD); conditions: for Ratio of IC50 Values / Kb: 173 and NTI at 20 nM, 174 and 5'-NTII at 100 nM; for Kb: read-out: Ke
T1 construct: from tissue; host or cells: vas deferens of male ddy mice
T1 sequence (P32300 whole entry): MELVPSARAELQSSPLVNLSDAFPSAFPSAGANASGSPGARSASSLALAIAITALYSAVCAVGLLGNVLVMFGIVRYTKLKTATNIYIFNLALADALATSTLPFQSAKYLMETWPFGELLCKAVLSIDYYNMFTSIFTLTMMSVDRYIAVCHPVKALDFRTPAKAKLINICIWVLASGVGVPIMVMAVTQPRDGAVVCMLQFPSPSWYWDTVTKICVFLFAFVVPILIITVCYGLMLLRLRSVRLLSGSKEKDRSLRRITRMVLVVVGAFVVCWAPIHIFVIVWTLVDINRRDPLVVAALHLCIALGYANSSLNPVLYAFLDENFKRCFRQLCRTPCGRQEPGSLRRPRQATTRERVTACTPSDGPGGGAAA
Protocol: In this experiment, ddy male mice were used. In a Magnus' tube which is filled with Krebes-Henseleit solution (NaCl […]; KCl 4.7 mM; CaCl2 2.5 mM; KH2 PO4 1.1 mM; NaHCO3 25 mM; glucose 11 mM) kept at 37° C., and into which an atmosphere consisting of 5% carbon dioxide and 95% oxygen was flown, vas deferens taken from the animals was suspended. Electric stimulation was applied through ring-shaped platinum electrodes mounted on the upper and lower portions of the tube at a frequency of 0.1 Hz and 5.0 mS duration. The contraction of the tissue was recorded on polygraph using isometric transducer.
Then 100 nM of the test compound was added. Twenty minutes later, DPDPE was begun to be added cumulatively. The ratio of IC50 values in the presence and absence of the test compound, Ke value (the molar concentration of the test compound necessary for translating the dose-effect curve to the curve of twice dose) and pA2 value were determined. The pA2 value was determined by the method of Shild et al (Shild, H. O., Br. J. Pharmac. Chamotehr., 4, 277 (1949)). That is, the logarithm of the test compound (log[test compound]) was plotted along the abscissa and the logarithm of the value obtained by subtracting 1 from the ratio of IC50 values was plotted in the presence and absence of the test compound [log(dose ratio-1)] along the ordinate. The pA2 value was determined from the value on the abscissa when the value on the ordinate of the obtained line is 0.
Using MVD, the antagonist activities of compounds 173 and 174 against DPDPE were determined. The ratio of IC50 values, Ke values and pA2 values at 15 minutes, 30 minutes and 1 hour from the addition of the test compounds were calculated. Since the concentrations of the test compounds are different, the reciprocals of Ke values were plotted in FIGS. 1 and 2.

δ-opioid receptor [2] = conditions: Portoghese, J. Med. Chem. 33, 1547 (1990); cited from earlier work

SMILES: Oc1ccc2c3c1O[C@H]1c4[nH]c5ccc(N=C=S)cc5c4C[C@@]4(O)[C@@H](C2)N(CC2CC2)CC[C@]314 [5'-NTII, reference compound]
- Ratio of IC50 Values (δ-opioid receptor [1]; 15 min): 3.28
- Kb (δ-opioid receptor [1]; 15 min): 43.9 nM
- change of antagonist activity with time (in words) (δ-opioid receptor [1]; 15 min to 1 hour): increased with time
- Ratio of IC50 Values (δ-opioid receptor [1]; 30 min): 7.47
- Kb (δ-opioid receptor [1]; 30 min): 15.5 nM
- Ratio of IC50 Values (δ-opioid receptor [1]; 60 min): 9.36
- Kb (δ-opioid receptor [1]; 60 min): 12 nM
- antagonist activity and selectivity to δ-opioid receptor (in words) (δ-opioid receptor [2]): antagonist activity and selectivity to δ-opioid receptor are low
